Measured values taken from ChEMBL document CHEMBL4052649, “Structure-activity relationships for flavone interactions with amyloid β reveal a novel anti-aggregatory and neuroprotective effect of 2',3',4'-trihydroxyflavone (2-D08)” (Bioorg Med Chem, 2017).
Activity calls are given as the source filed them. The calls are words filed in the database; no cut-off is given here.

Experiments:
[1] = molecular target: Amyloid-beta precursor protein (Homo sapiens) (UniProt P05067); experiment: Inhibition of human amyloid beta (1 to 42) assessed as neuroprotective activity at 2 uM of amyloid beta (1 to 42)-induced toxicity in rat PC12 cells by measuring reduction in cell viability at 100 uM incubated 15 mins prior to amyloid beta (1 to 42) addition measured after 48 hrs by MTT assay; type: cell-based
Amyloid-beta precursor protein (Homo sapiens), sequence (P05067 whole entry): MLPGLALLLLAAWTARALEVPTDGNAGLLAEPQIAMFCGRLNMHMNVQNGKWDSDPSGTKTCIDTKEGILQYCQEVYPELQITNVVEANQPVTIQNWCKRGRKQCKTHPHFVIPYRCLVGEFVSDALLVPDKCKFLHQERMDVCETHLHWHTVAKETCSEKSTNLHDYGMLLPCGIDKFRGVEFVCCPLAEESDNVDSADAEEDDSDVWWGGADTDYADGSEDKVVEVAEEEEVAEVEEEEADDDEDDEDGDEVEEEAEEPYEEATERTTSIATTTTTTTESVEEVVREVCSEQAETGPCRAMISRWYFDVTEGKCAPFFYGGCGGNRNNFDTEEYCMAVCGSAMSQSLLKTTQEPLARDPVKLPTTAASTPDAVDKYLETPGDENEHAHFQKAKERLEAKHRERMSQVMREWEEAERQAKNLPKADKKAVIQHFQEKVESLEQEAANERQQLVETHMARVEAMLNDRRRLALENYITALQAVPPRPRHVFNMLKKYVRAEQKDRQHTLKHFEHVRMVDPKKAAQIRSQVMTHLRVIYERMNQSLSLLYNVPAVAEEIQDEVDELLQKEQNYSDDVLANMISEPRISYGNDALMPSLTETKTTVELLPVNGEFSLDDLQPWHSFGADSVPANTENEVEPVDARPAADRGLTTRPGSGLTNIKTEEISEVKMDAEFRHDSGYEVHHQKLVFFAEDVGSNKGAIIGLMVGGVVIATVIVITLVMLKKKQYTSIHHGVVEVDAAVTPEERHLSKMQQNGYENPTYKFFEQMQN

[2] = molecular target: Amyloid-beta precursor protein (Homo sapiens) (UniProt P05067); experiment: Inhibition of human amyloid beta (1 to 42) assessed as reduction in fibrillisation AUC in cell-free solution at 100 uM measured every 10 mins for 48 hrs by Thioflavin T based fluorescence assay
[3] = molecular target: Amyloid-beta precursor protein (Homo sapiens) (UniProt P05067); experiment: Inhibition of human amyloid beta (1 to 42) assessed as neuroprotective activity at 2 uM of amyloid beta (1 to 42)-induced toxicity in rat PC12 cells by measuring reduction in cell viability at 10 to 50 uM incubated 15 mins prior to amyloid beta (1 to 42) addition measured after 48 hrs by MTT assay; type: cell-based
[4] = molecular target: Amyloid-beta precursor protein (Homo sapiens) (UniProt P05067); experiment: Inhibition of human amyloid beta (1 to 42) fibrillisation in cell-free solution at 100 uM measured every 10 mins up to 48 hrs by Thioflavin T based fluorescence assay
[5] = molecular target: Amyloid-beta precursor protein (Homo sapiens) (UniProt P05067); experiment: Inhibition of human amyloid beta (1 to 42) aggregation assessed as loosely attached/thin fibrils at 100 uM after 48 hrs by transmission electron microscopic analysis
[6] = molecular target: Amyloid-beta precursor protein (Homo sapiens) (UniProt P05067); experiment: Inhibition of human amyloid beta (1 to 42) assessed as neuroprotective activity up to 2 uM of amyloid beta (1 to 42)-induced toxicity in rat PC12 cells by measuring reduction in cell viability at 100 uM incubated 15 mins prior to amyloid beta (1 to 42) addition measured after 48 hrs by MTT assay; type: cell-based
[7] = molecular target: Amyloid-beta precursor protein (Homo sapiens) (UniProt P05067); experiment: Inhibition of human amyloid beta (1 to 42) aggregation at 100 uM after 48 hrs by transmission electron microscopic analysis
[8] = molecular target: Amyloid-beta precursor protein (Homo sapiens) (UniProt P05067); experiment: Inhibition of human amyloid beta (1 to 42) aggregation assessed as reduction in fibril formation at 100 uM after 48 hrs by transmission electron microscopic analysis
[9] = molecular target: Amyloid-beta precursor protein (Homo sapiens) (UniProt P05067); experiment: Inhibition of human amyloid beta (1 to 42) assessed as neuroprotective activity at 2 uM of amyloid beta (1 to 42)-induced toxicity in rat PC12 cells by measuring reduction in cell viability incubated 15 mins prior to amyloid beta (1 to 42) addition measured after 48 hrs by MTT assay; type: cell-based
[10] = molecular target: Amyloid-beta precursor protein (Homo sapiens) (UniProt P05067); experiment: Inhibition of human amyloid beta (1 to 42) fibrillisation in cell-free solution at 100 uM measured up to 16 hrs by Thioflavin T based fluorescence assay
[11] = molecular target: Amyloid-beta precursor protein (Homo sapiens) (UniProt P05067); experiment: Inhibition of human amyloid beta (1 to 42) assessed as neuroprotective activity up to 1 uM of amyloid beta (1 to 42)-induced toxicity in rat PC12 cells by measuring reduction in cell viability at 100 uM incubated 15 mins prior to amyloid beta (1 to 42) addition measured after 48 hrs by MTT assay; type: cell-based
PC-12 [12] = experiment: Cytotoxicity against rat PC12 cells assessed as reduction in cell viability at 100 uM after 48 hrs in presence of 0.1 uM amyloid beta (1 to 42) by MTT assay; type: cell-based; settings: pc-12, 48 h
[13] = molecular target: Amyloid-beta precursor protein (Homo sapiens) (UniProt P05067); experiment: Inhibition of human amyloid beta (1 to 42) aggregation assessed as increase in preponderance of fibril meshwork formation at 100 uM after 48 hrs by transmission electron microscopic analysis
[14] = molecular target: Amyloid-beta precursor protein (Homo sapiens) (UniProt P05067); experiment: Inhibition of human amyloid beta (1 to 42) assessed as neuroprotective activity against amyloid beta (1 to 42)-induced toxicity in rat PC12 cells by measuring reduction in cell viability at 10 uM incubated 15 mins prior to amyloid beta (1 to 42) addition measured after 48 hrs by MTT assay; type: cell-based
[15] = molecular target: Amyloid-beta precursor protein (Homo sapiens) (UniProt P05067); experiment: Inhibition of human amyloid beta (1 to 42) assessed as neuroprotective activity against amyloid beta (1 to 42)-induced toxicity in rat PC12 cells by measuring reduction in cell viability at 50 to 100 uM incubated 15 mins prior to amyloid beta (1 to 42) addition measured after 48 hrs by MTT assay; type: cell-based
PC-12 [16] = experiment: Cytotoxicity against rat PC12 cells assessed as reduction in cell viability at 100 uM after 48 hrs by MTT assay; type: cell-based; settings: pc-12, 48 h
PC-12 [17] = experiment: Cytotoxicity against rat PC12 cells assessed as reduction in cell viability at 100 uM after 48 hrs in presence of up to 2 uM amyloid beta (1 to 42) by MTT assay; type: cell-based; settings: pc-12, 48 h

| SMILES | inhibition [1] | inhibition [2] | inhibition [3] | inhibition [4] | inhibition [5] | inhibition [6] | inhibition [7] | inhibition [8] | inhibition [9] | inhibition [10] | inhibition [11] | Activity (PC-12 [12]) | inhibition [13] | inhibition [14] | inhibition [15] | Activity (PC-12 [16]) [%] | Activity (PC-12 [17]) |
| --- | --- | --- | --- | --- | --- | --- | --- | --- | --- | --- | --- | --- | --- | --- | --- | --- | --- |
| COc1c(-c2ccc(O)c(O)c2)oc2c(O)c(O)ccc2c1=O | inactive | Active | Active | Active | Active | Active |  |  |  |  |  |  |  |  |  |  |  |
| O=c1cc(-c2ccc(O)c(O)c2O)oc2ccccc12 |  | Active |  | Active |  | Active | Active | Active | Dose-dependent effect |  |  |  |  |  |  |  |  |
| COc1cc(-c2cc(=O)c3c(O)c(OC)c(O)cc3o2)ccc1O [JACEOSIDINE] |  | inactive |  |  |  |  | Active |  |  | Active | inactive | Toxic |  |  |  |  |  |
| COc1ccc(-c2cc(=O)c3c(OC)c(OC)c(OC)c(OC)c3o2)cc1OC [NOBILETIN] |  | inactive |  |  |  |  |  |  |  | inactive | inactive | Toxic | inactive |  |  |  |  |
| O=c1c(O)c(-c2ccc(O)c(O)c2)oc2cc(O)cc(O)c12 [QUERCETIN] |  | Active |  | Active | Active | inactive |  |  |  |  |  |  |  | Active | inactive | 25 | Non-Toxic |
